According to the supplement of paper PMC10307832:

How the values were obtained:
Assay in all cases: relative viability (nuclei count vs DMSO), 5 days (fraction); higher = more cells survive
Neratinib = compound: CCOc1cc2ncc(C#N)c(Nc3ccc(OCc4ccccn4)c(Cl)c3)c2cc1NC(=O)/C=C/CN(C)C [Neratinib]
How it was run: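 After an overnight hold at 37 °C, lung cancer cell lines in 1536-well plates were pinned with five library-drug doses (not always all listed), each √10 from the next, on vehicle-anchored plates. The cells stayed 5 days without fresh medium, then a one-step fix, permeabilisation and Hoechst stain preceded 4× imaging and MetaXpress nuclear counts. A plate passed only with control CV under 25% and at least one doubling. Viability is the median, over plates, of treated-well nuclei relative to vehicle-well nuclei.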

Neratinib + Palbociclib = compound: CCOc1cc2ncc(C#N)c(Nc3ccc(OCc4ccccn4)c(Cl)c3)c2cc1NC(=O)/C=C/CN(C)C [Neratinib] + CC(=O)c1c(C)c2cnc(Nc3ccc(N4CCNCC4)cn3)nc2n(C2CCCC2)c1=O [Palbociclib] (partner 0.5 µM)
How it was run: (§1)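 Nuclei were stained with Hoechst during a one-step fixation (final 0.05% Triton X-100, 1% formaldehyde, 1 ug/ml Hoechst) carried out 5 days after dosing, then counted on 4× images. The cells, lung cancer lines in 1536-well plates, had been dosed by pin tool the day after seeding with one drug alone or a fixed anchor-drug dose plus five library-drug doses (not always all listed) in √10 steps. Relative viability is the nuclei count in treated wells divided by that in vehicle wells, and each value is the median of duplicate plates.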

Neratinib + Foretinib = compound: CCOc1cc2ncc(C#N)c(Nc3ccc(OCc4ccccn4)c(Cl)c3)c2cc1NC(=O)/C=C/CN(C)C [Neratinib] + COc1cc2c(Oc3ccc(NC(=O)C4(C(=O)Nc5ccc(F)cc5)CC4)cc3F)ccnc2cc1OCCCN1CCOCC1 [Foretinib] (partner 0.25 µM)
How it was run: as §1

Neratinib + OSI-027 = compound: CCOc1cc2ncc(C#N)c(Nc3ccc(OCc4ccccn4)c(Cl)c3)c2cc1NC(=O)/C=C/CN(C)C [Neratinib] + COc1cccc2cc(-c3nc([C@H]4CC[C@H](C(=O)O)CC4)n4ncnc(N)c34)[nH]c12 [OSI-027] (partner 0.5 µM)
How it was run: as §1

Cell Line	relative viability (Neratinib; 0.01 µM)	relative viability (Neratinib; 0.03162 µM)	relative viability (Neratinib; 0.1 µM)	relative viability (Neratinib; 0.3162 µM)	relative viability (Neratinib; 1 µM)	relative viability (Neratinib + Palbociclib; first compound 0.01 µM)	relative viability (Neratinib + Palbociclib; first compound 0.03162 µM)	relative viability (Neratinib + Palbociclib; first compound 0.1 µM)	relative viability (Neratinib + Palbociclib; first compound 0.3162 µM)	relative viability (Neratinib + Palbociclib; first compound 1 µM)	relative viability (Neratinib + Foretinib; first compound 0.01 µM)	relative viability (Neratinib + Foretinib; first compound 0.03162 µM)	relative viability (Neratinib + Foretinib; first compound 0.1 µM)	relative viability (Neratinib + Foretinib; first compound 0.3162 µM)	relative viability (Neratinib + Foretinib; first compound 1 µM)	relative viability (Neratinib + OSI-027; first compound 0.01 µM)	relative viability (Neratinib + OSI-027; first compound 0.03162 µM)	relative viability (Neratinib + OSI-027; first compound 0.1 µM)	relative viability (Neratinib + OSI-027; first compound 0.3162 µM)	relative viability (Neratinib + OSI-027; first compound 1 µM)
HCC-78	1.07	1.03	0.892	0.87	0.475	0.467	0.479	0.409	0.424	0.463	0.561	0.555	0.499	0.344	0.365	0.387	0.333	0.354	0.27	0.296
HCC-366	1.05	1.1		1.01		0.418	0.464	0.353	0.431	0.211	0.971	0.961	0.844	0.856	1.03	1.1	0.949	0.785	0.803	0.163
HCC-827	1.09	1.13	0.982	0.679	0.183	0.503	0.509	0.513	0.194	0.15	1.17	1.11	0.934	0.186	0.173	0.81	0.774	0.721	0.508	0.16
HOP-62	1.02	1.15	0.934	0.914	1.09	0.455	0.475	0.383		0.303	1.16	1.08	0.982	1.14	0.92	0.849	0.914	0.799	0.776	0.775
IA-LM	1.03	1.04	0.943	0.881	0.562						1.36	1.36	1.11	0.927	0.628					
LC-2-ad	1.01	1.03	0.915	0.738	0.797	0.487	0.507	0.41	0.442	0.499	0.898	0.989	0.777	0.532	0.393	0.831	0.877	0.749	0.518	0.383
LCLC-97TM1	1.05	1.08	0.955	0.689	0.696	0.258	0.237	0.228		0.117	1.07	0.952	0.829	0.824	0.483	0.615	0.537	0.547	0.346	0.27
LCLC-103H	0.996	0.997	0.897	1.07	0.989	0.517	0.478	0.457	0.474	0.46	0.926	0.805	0.704	0.697	0.496	0.562	0.48	0.47	0.463	0.394
LK-2	1.12	1.05	0.988	0.718	0.499	0.868	0.752		0.476	0.522	1.27	1.6	1.24	0.958	0.656	0.189	0.227	0.217	0.189	0.182
LOU-NH91	0.988	0.92	0.796	0.691	0.676	0.504	0.547	0.557	0.462	0.536	0.971	0.82	0.644	0.542	0.504	0.706	0.715	0.471	0.46	0.408
LU99A	0.948	1.04	0.908	0.891	0.646	0.377	0.434	0.356	0.385	0.329	0.959		0.73	0.462	0.376	0.287	0.311	0.292	0.288	0.26
LXF-289	1.03	1.07	0.948	1.05	1.01	0.633	0.631	0.554		0.58	1	1	0.961	0.995	0.709	0.876	0.875	0.777	0.759	0.542
NCI-H23	1.1	1.15	0.811	0.922	0.739	0.48	0.579	0.482	0.563	0.318		0.686		0.942	0.463	0.717	0.664	0.561	0.504	0.296
NCI-H596	1.01	1.03	0.984	1.09	0.817						0.89	0.986		0.798	0.622	0.771	0.822	0.686	0.704	0.386
NCI-H1299	1.01		0.89	1.03	1.06						1.1	1.09	1.07	1.12	1.12					
NCI-H1563	1.03	1.07	0.915	0.864	0.706						0.858	0.942	0.885	0.844	0.75	0.806	0.725	0.732	0.67	0.575
NCI-H1648	0.819	0.931	0.657	0.383	0.432	0.29	0.265	0.231	0.26	0.337						0.297	0.265	0.303	0.305	0.278
NCI-H1703	1.16	0.951	0.909	0.778	0.388						0.447	0.318	0.356	0.327	0.218					
NCI-H1792	1.33	1.19	0.808		0.813	0.813	0.71	0.414	0.616	0.445						0.825	0.87	0.698	0.692	0.424
